Reference: patent US20210254138A1, “SIALIC ACID TRANSPORTER PROTEINS AS BIOMARKERS AND DRUG TARGETS” (Quadram Institute Bioscience, priority 2018, published 2021)

Experiments:
[1] = system: R. gnavus ATCC 29149 wild-type; assay: Growth on sole carbon source, wild-type strain; assay type: cell-based; conditions: 11.1 mM in YCFA, anaerobic
Procedure: R. gnavus ATCC 29149 was routinely grown in an anaerobic cabinet (Don Whitley, Shipley, UK) in BHI-YH as previously described (Crost et al., 2013). Growth on single carbon sources utilized anaerobic basal YCFA medium (Duncan et al., 2002) supplemented with 11.1 mM of specific mono- or oligosaccharides (2,7-anhydro-Neu5Ac, 3'Sialyllactose (3'SL) or glucose). The bacteria were grown to late exponential phase for RNA extraction, the culture was performed in 14 ml tubes. Growth was determined spectrophotometrically by monitoring changes in optical density at […] compared to the same medium without bacterium (ΔOD595 nm) hourly for 10 hours.
(§1) The ability of the mutants to utilise sialic acids and sialoconjugates was assessed by supplementing YCFA with 11.1 mM of 2,7-anhydro-Neu5Ac, 3'SL, glucose or Neu5Ac in triplicate 200 μl cultures in 96-well microtiter plates. The OD595 nm was measured hourly for 10 h in an infinite F50 plate reader (Tecan, UK) housed within an anaerobic cabinet connected to Magellan V7.0 software.

[2] = system: R. gnavus ATCC 29149 nan deletion mutants; assay: Growth on sole carbon source, nan deletion mutants; assay type: cell-based; conditions: 11.1 mM in YCFA, anaerobic
From the text: R. gnavus mutants were generated using the ClosTron methodology (Heap et al., 2010), which inserts an erythromycin resistance cassette into the gene of interest. Target sites were identified using the Pertuka method (Perutka et al., 2004). The re-targeted introns were synthesised and ligated into the pMTL007C-E2 vector by ATUM (MenloPark, USA). The plasmids were then transformed into E. coli CA434 using the heat-shock protocol, and the recombinant clones selected for chloramphenicol resistance. Recombinant E. coli cells were grown overnight in 10 ml LB, 1 ml of the overnight culture was pelleted and washed with PBS. The E. coli cell pellet was resuspended in 200 μl of an R. gnavus overnight culture and the cell suspension spotted onto a non-selective BHI-YH plate. […]
as §1

[3] = molecular target: RgSBP (RUMGNA_02698); solute-binding protein of the sialic acid ABC transporter, full-length excluding the signal sequence (residues 1-29), N-terminal His-tag …; assay: Isothermal titration calorimetry (ITC) of 2,7-anhydro-Neu5Ac binding to RgSBP (FIG. 4A); set-up: species or system Ruminococcus gnavus ATCC 29149; conditions: 50 mM Tris-HCl pH 7.5, cell protein 100 μM, syringe ligand 2 mM, single-binding site model
From the text: The Nan cluster in R. gnavus ATCC 29149 is predicted to encode a putative sialic acid transporter of the SAT2 family, with RUMGNA_02698 predicted to be a solute binding protein (SBP) and RUMGNA_02697 and 02696 predicted to be two permeases (Crost et al., 2013; 2016). To determine the ligand specificity of R. gnavus SBP protein (RgSBP), the corresponding gene was amplified by PCR from the R. gnavus ATCC 29149 genome, cloned and heterologously expressed in E. coli and the His6-tag recombinant protein purified by immobilised metal ion affinity chromatography (IMAC).
The affinity of the interaction between RgSBP and sialic acid ligands was further assessed by ITC.
The full-length RgSBP excluding the signal sequence (residues 1-29), the full length RgNanA and full length RUMGNA_02695 were amplified from R. gnavus ATCC 29149 gDNA, and cloned into the pHISTEV expression system, introducing a His-tag at the N terminus using primers listed in Table S1. DNA manipulation was carried out in E. coli DH5α cells. […] Protein purification was assessed by standard SDS-polyacrylamide gel electrophoresis using NuPAGE Novex 4-12% Bis-Tris gels (Life Technologies, Paisley, UK). Protein concentration was measured with NanoDrop 1000 UV-Vis
Spectrophotometer (Thermo Fischer Scientific, Wilmington, Del.) and using the extinction coefficient calculated by Protparam (ExPASy-Artimo, 2012) from the peptide sequence. […]

[4] = system: CC(=O)N[C@H]1[C@H]([C@H](O)[C@H](O)CO)OC(O)(C(=O)O)C[C@@H]1O; assay: purified protein, by the assay type; conditions: other: substrate of RgNanA; Michaelis-Menten fit; pH 7.0
Procedure: Aldolase cleavage was measured by monitoring the decrease in absorbance at 340 nm (A340 nm) as NADH is converted to NAD by lactate dehydrogenase in a coupled reaction where pyruvate is released from sialic acid by the aldolase. Reactions were performed in a 100 μl volume with final concentrations of 150 μM NADH (Sigma, St Louis, USA), 0.5 U LDH (Sigma, St Louis, USA), 10 mM sialic acid (Neu5Ac or 2,7-anhydro-Neu5Ac) and 1.5 μg purified RgNanA or EcNanA (E. coli aldolase CAS: 9027-60-5, Carbosynth, UK) in 50 mM Na-phosphate buffer (pH 7.0). The reactions were performed at 37° C. and monitored using FLUOstar OPTIMA (BMG LABTECH). For kinetics experiments, the sialic acid concentration was varied at 20, 10, 5, 4, 2, 1, 0.4, 0.2, 0.1 mM and the initial rate of reaction determined for each concentration in triplicate before analysis was performed by fitting the data to a Michaelis-Menten using Graph Pad Prism (V 5.03).
The substrate specificity of RgNanA was determined using a coupled activity assay where pyruvate released during the conversion of sialic acid to ManNAc is converted to lactate by a lactate dehydrogenase and the subsequent loss of absorbance at 340 nm measured as NADH is converted to NAD^+. A commercially available E. coli sialic acid aldolase (EcNanA) was included as a control and enzymes were tested for activity against 2,7-anhydro-Neu5Ac and Neu5Ac. […] The kinetic parameters of RgNanA were determined by calculating the initial rate of reaction with increasing Neu5Ac concentrations. A Michaelis-Menten curve was fitted to the data and kinetic parameters determined (FIG. 7b).

## CC(=O)N[C@H]1[C@H]([C@H](O)[C@H](O)CO)O[C@@](O[C@H]2[C@@H](O)[C@@H](CO)O[C@@H](O[C@H]3[C@H](O)[C@@H](O)C(O)O[C@@H]3CO)[C@@H]2O)(C(=O)O)C[C@@H]1O (some centres unmarked) [3'SL, 3'-sialyllactose]
[1]
  utilisation as a sole carbon source (growth): able to utilise
[2]
  growth on substrate as sole carbon source: no growth was detected

## CC(=O)NC1C(O)CC2(C(=O)O)OC(C(O)CO)C1O2 (centres unmarked) [2,7-anhydro-Neu5Ac]
[3]
  Kd: 2240 nM

## RgNanA (RUMGNA_02692, sialic acid aldolase) (Mediterraneibacter gnavus ATCC 29149)
[4]
  Km: 1473 ± 98 µM
  kcat: 2.757 ± 0.033 s⁻¹
